Reference: PMC9262584 (2022)

Key:
[1] = test system: Cd1^83 (RNA, riboswitch) GGAAACUAAAUAGGCAAAUCUAGAGAAAUCUAGUGACGCAAAGCUAUAGGGACUAAGGUUUAUAUACAUAAACUAUGUCAGCCAG; assay: ITC; conditions: 120 mM NaCl, 8 mM MgCl2 (RNA wash buffer); 50 mM Bis-Tris pH 6.1; individual ITC conditions in SI Figures S11/S12
[2] = test system: Cd1^86 (RNA, riboswitch) GGAAACUAAAUAGGCAAAUCUAGAGAAAUCUAGUGACGCAAAGCUAUAGGGACUAAGGUUUAUAUACAUAAACUAUGUCAGCCAGUUG; assay: ITC; conditions: 120 mM NaCl, 8 mM MgCl2 (RNA wash buffer); 50 mM Bis-Tris pH 6.1; individual ITC conditions in SI Figures S11/S12
[3] = test system: Cd1^87 (RNA, riboswitch) GGAAACUAAAUAGGCAAAUCUAGAGAAAUCUAGUGACGCAAAGCUAUAGGGACUAAGGUUUAUAUACAUAAACUAUGUCAGCCAGUUGC; assay: ITC; conditions: 120 mM NaCl, 8 mM MgCl2 (RNA wash buffer); 50 mM Bis-Tris pH 6.1; individual ITC conditions in SI Figures S11/S12
[4] = test system: Cd1^88 (RNA, riboswitch) GGAAACUAAAUAGGCAAAUCUAGAGAAAUCUAGUGACGCAAAGCUAUAGGGACUAAGGUUUAUAUACAUAAACUAUGUCAGCCAGUUGCC; assay: ITC; conditions: 120 mM NaCl, 8 mM MgCl2 (RNA wash buffer); 50 mM Bis-Tris pH 6.1; individual ITC conditions in SI Figures S11/S12
[5] = test system: Cd1^135 (RNA, riboswitch) GGAAACUAAAUAGGCAAAUCUAGAGAAAUCUAGUGACGCAAAGCUAUAGGGACUAAGGUUUAUAUACAUAAACUAUGUCAGCCAGUUGCCAAAAAGAGUCCUAGGUGUAUUGUAUACCUAAGAAAAGUCUAUAAUGA; assay: ITC; conditions: 120 mM NaCl, 8 mM MgCl2 (RNA wash buffer); 50 mM Bis-Tris pH 6.1; individual ITC conditions in SI Figures S11/S12
[6] = test system: Cd1^146 (RNA, riboswitch) GGAAACUAAAUAGGCAAAUCUAGAGAAAUCUAGUGACGCAAAGCUAUAGGGACUAAGGUUUAUAUACAUAAACUAUGUCAGCCAGUUGCCAAAAAGAGUCCUAGGUGUAUUGUAUACCUAAGAAAAGUCUAUAAUGACUGCCUUUUUG; assay: ITC; conditions: 120 mM NaCl, 8 mM MgCl2 (RNA wash buffer); 50 mM Bis-Tris pH 6.1; individual ITC conditions in SI Figures S11/S12
[7] = test system: Cd1^88 C81A (RNA, riboswitch) GGAAACUAAAUAGGCAAAUCUAGAGAAAUCUAGUGACGCAAAGCUAUAGGGACUAAGGUUUAUAUACAUAAACUAUGUCAGCAAGUUGCC; assay: 1H NMR reporter peaks; conditions: 110 mM NaCl, MgCl2 at 40 equiv. over RNA; 50 mM Bis-Tris, 5-10% D2O
[8] = test system: Cd1^88 A24-26U (RNA, riboswitch) GGAAACUAAAUAGGCAAAUCUAGAGUUUUCUAGUGACGCAAAGCUAUAGGGACUAAGGUUUAUAUACAUAAACUAUGUCAGCCAGUUGCC; assay: 1H NMR reporter peaks; conditions: 110 mM NaCl, MgCl2 at 40 equiv. over RNA; 50 mM Bis-Tris, 5-10% D2O
[9] = test system: Cd1^80 (RNA, riboswitch) GGAAACUAAAUAGGCAAAUCUAGAGAAAUCUAGUGACGCAAAGCUAUAGGGACUAAGGUUUAUAUACAUAAACUAUGUCAGC; assay: 1H NMR reporter peaks; conditions: 110 mM NaCl, MgCl2 at 40 equiv. over RNA; 50 mM Bis-Tris, 5-10% D2O
[10] = test system: Cd1^81 (RNA, riboswitch) GGAAACUAAAUAGGCAAAUCUAGAGAAAUCUAGUGACGCAAAGCUAUAGGGACUAAGGUUUAUAUACAUAAACUAUGUCAGCC; assay: 1H NMR reporter peaks; conditions: 110 mM NaCl, MgCl2 at 40 equiv. over RNA; 50 mM Bis-Tris, 5-10% D2O
[11] = test system: Cd1^82 (RNA, riboswitch) GGAAACUAAAUAGGCAAAUCUAGAGAAAUCUAGUGACGCAAAGCUAUAGGGACUAAGGUUUAUAUACAUAAACUAUGUCAGCCA; assay: 1H NMR reporter peaks; conditions: 110 mM NaCl, MgCl2 at 40 equiv. over RNA; 50 mM Bis-Tris, 5-10% D2O
[12] = test system: Cd1^88 C87A (RNA, riboswitch) GGAAACUAAAUAGGCAAAUCUAGAGAAAUCUAGUGACGCAAAGCUAUAGGGACUAAGGUUUAUAUACAUAAACUAUGUCAGCCAGUUGAC; assay: 1H NMR reporter peaks; conditions: 110 mM NaCl, MgCl2 at 40 equiv. over RNA; 50 mM Bis-Tris, 5-10% D2O
[13] = test system: Cd1^88 C88A (RNA, riboswitch) GGAAACUAAAUAGGCAAAUCUAGAGAAAUCUAGUGACGCAAAGCUAUAGGGACUAAGGUUUAUAUACAUAAACUAUGUCAGCCAGUUGCA; assay: 1H NMR reporter peaks; conditions: 110 mM NaCl, MgCl2 at 40 equiv. over RNA; 50 mM Bis-Tris, 5-10% D2O
[14] = test system: Cd1^88 G11A (RNA, riboswitch) GGAAACUAAAUAAGCAAAUCUAGAGAAAUCUAGUGACGCAAAGCUAUAGGGACUAAGGUUUAUAUACAUAAACUAUGUCAGCCAGUUGCC; assay: 1H NMR reporter peaks; conditions: 110 mM NaCl, MgCl2 at 40 equiv. over RNA; 50 mM Bis-Tris, 5-10% D2O
[15] = test system: Cd1^88 G11C (RNA, riboswitch) GGAAACUAAAUACGCAAAUCUAGAGAAAUCUAGUGACGCAAAGCUAUAGGGACUAAGGUUUAUAUACAUAAACUAUGUCAGCCAGUUGCC; assay: 1H NMR reporter peaks; conditions: 110 mM NaCl, MgCl2 at 40 equiv. over RNA; 50 mM Bis-Tris, 5-10% D2O
[16] = test system: Cd1^148 (RNA, riboswitch) GGAAACUAAAUAGGCAAAUCUAGAGAAAUCUAGUGACGCAAAGCUAUAGGGACUAAGGUUUAUAUACAUAAACUAUGUCAGCCAGUUGCCAAAAAGAGUCCUAGGUGUAUUGUAUACCUAAGAAAAGUCUAUAAUGACUGCCUUUUUGGC; assay: 2D 1H/15N correlation NMR; conditions: 110 mM NaCl, MgCl2 at 40 equiv. over RNA; 50 mM Bis-Tris, 5-10% D2O
[17] = test system: Cd1^149 (RNA, riboswitch) GGAAACUAAAUAGGCAAAUCUAGAGAAAUCUAGUGACGCAAAGCUAUAGGGACUAAGGUUUAUAUACAUAAACUAUGUCAGCCAGUUGCCAAAAAGAGUCCUAGGUGUAUUGUAUACCUAAGAAAAGUCUAUAAUGACUGCCUUUUUGGCA; assay: 2D 1H/15N correlation NMR; conditions: 110 mM NaCl, MgCl2 at 40 equiv. over RNA; 50 mM Bis-Tris, 5-10% D2O
[18] = test system: Cd1^147 (RNA, riboswitch) GGAAACUAAAUAGGCAAAUCUAGAGAAAUCUAGUGACGCAAAGCUAUAGGGACUAAGGUUUAUAUACAUAAACUAUGUCAGCCAGUUGCCAAAAAGAGUCCUAGGUGUAUUGUAUACCUAAGAAAAGUCUAUAAUGACUGCCUUUUUGG; assay: 2D 1H/15N correlation NMR; conditions: 110 mM NaCl, MgCl2 at 40 equiv. over RNA; 50 mM Bis-Tris, 5-10% D2O

KD [1]: > >100 μM
KD [2]: 35 ± 10 µM
KD [3]: 1.9 ± 0.1 µM
KD [4]: 0.25 ± 0.04 µM
KD [5]: 0.6 ± 0.03 µM
KD [6]: 7 ± 2 µM
binding [7]: no
binding [8]: no
binding [9]: no
binding [10]: no
binding [11]: no
binding [12]: weak
binding [13]: yes
binding [14]: yes
binding [15]: yes
binding [16]: no
binding [17]: no
binding [18]: yes
Compound: Nc1nc2c(ncn2[C@@H]2O[C@@H]3COP(=O)(O)O[C@H]4[C@@H](O)[C@H](n5cnc6c(=O)[nH]c(N)nc65)O[C@@H]4COP(=O)(O)O[C@H]3[C@H]2O)c(=O)[nH]1
